Structures are written as SMILES. Calls of active or inactive are those of the source.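 The calls were made as follows: active = hERG flux cut by over 30% at some tested dose, with a fitted dose response curve; inactive = no hERG inhibition at any dose or no curve.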

The assay addresses Voltage-gated inwardly rectifying potassium channel KCNH2 (Homo sapiens) (UniProt Q12809). As to the kind of experiment: hERG channel inhibition in selectivity testing, SAR follow-up, selectivity assay for TASK1 inhibitor project, FluxOR thallium flux, concentration-response, CHO cells (AID 652194). To be noted: hERG-expressing cells, FluxOR thallium flux fluorescence; for flux ratio, lower = inhibition: at 30 µM (top of the series).

Voltage-gated inwardly rectifying potassium channel KCNH2 (Homo sapiens), sequence (Q12809 whole entry, looked up): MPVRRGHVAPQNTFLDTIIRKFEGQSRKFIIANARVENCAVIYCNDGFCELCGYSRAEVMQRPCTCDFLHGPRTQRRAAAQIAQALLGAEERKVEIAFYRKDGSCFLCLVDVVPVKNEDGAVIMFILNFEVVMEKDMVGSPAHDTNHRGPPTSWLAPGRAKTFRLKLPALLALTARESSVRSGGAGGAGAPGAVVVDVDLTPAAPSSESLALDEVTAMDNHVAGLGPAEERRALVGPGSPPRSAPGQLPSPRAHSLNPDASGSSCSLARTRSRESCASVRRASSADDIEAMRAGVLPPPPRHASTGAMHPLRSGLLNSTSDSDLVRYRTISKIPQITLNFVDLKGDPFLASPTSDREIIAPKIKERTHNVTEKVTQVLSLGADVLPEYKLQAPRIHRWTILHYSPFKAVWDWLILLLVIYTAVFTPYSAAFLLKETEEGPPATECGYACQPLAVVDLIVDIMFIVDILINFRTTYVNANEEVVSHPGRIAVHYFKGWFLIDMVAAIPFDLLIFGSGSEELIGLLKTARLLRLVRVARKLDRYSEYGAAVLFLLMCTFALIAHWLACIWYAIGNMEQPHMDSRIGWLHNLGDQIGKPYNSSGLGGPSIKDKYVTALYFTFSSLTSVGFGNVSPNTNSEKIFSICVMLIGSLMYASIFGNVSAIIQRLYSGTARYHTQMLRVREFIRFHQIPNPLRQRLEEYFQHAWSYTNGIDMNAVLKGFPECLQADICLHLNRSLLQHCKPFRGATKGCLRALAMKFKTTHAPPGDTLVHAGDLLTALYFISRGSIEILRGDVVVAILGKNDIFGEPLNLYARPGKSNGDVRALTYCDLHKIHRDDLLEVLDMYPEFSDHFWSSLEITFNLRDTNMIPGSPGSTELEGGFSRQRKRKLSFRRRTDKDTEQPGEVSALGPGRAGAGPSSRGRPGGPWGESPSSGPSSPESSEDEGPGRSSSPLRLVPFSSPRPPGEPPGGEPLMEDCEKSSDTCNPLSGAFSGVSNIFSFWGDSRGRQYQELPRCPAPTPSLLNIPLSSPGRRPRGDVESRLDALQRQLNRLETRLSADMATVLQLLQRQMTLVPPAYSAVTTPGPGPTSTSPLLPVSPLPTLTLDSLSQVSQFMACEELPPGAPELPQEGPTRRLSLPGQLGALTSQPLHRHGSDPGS

`Cc1cccc(C(=O)Nc2cccc(NC(=O)c3ccccc3C(F)(F)F)c2)c1`: the “flux ratio, lower = inhibition” value is “inactive”.

As for `COc1ccccc1NC(=O)c1cccc(NC(=O)c2ccccc2C(F)(F)F)c1`, the “flux ratio, lower = inhibition” value was “inactive”. On to `CCOc1ccccc1NC(=O)c1cccc(NC(=O)c2cccc(OC)c2)c1`, for which the “flux ratio, lower = inhibition” value is “inactive”.

Turning to `CCOc1ccccc1NC(=O)c1cccc(C(=O)NC2CCCC2)c1`, the “flux ratio, lower = inhibition” value is “inactive”. As to `CCOc1ccccc1C(=O)Nc1cccc(NC(=O)C2CCCC2)c1`, the “flux ratio, lower = inhibition” value is “inactive”. The same measure, in the same setting: for `Cc1cccc(C(=O)Nc2cccc(NC(=O)c3ccccc3C(C)C)c2)c1` the value was “inactive”. Regarding `COc1ccc(C(=O)Nc2cccc(NC(=O)c3cccc(C)c3)c2)cc1`, the “flux ratio, lower = inhibition” value was “inactive”. Take `COc1ccccc1C(=O)Nc1cccc(NC(=O)c2ccccc2C(C)C)c1`: the “flux ratio, lower = inhibition” value was “inactive”. As for `Cc1cccc(C(=O)Nc2cccc(C(=O)Nc3ccccc3)c2)c1`, the “flux ratio, lower = inhibition” value was “inactive”.

`CN(C)c1ccc(C(=O)Nc2cccc(NC(=O)c3ccccc3)c2)cc1`: the “flux ratio, lower = inhibition” value is “inactive”. The same measure, in the same setting: for `O=C(Nc1cccc(NC(=O)c2cccc(Cl)c2)c1)c1ccccc1` the value was “inactive”. In the case of `Cc1cccc(C(=O)Nc2cccc(NC(=O)c3ccccc3OC(F)(F)F)c2)c1`, the “flux ratio, lower = inhibition” value is “inactive”. With `COc1cccc(OC)c1C(=O)Nc1cccc(NC(=O)c2cccc(C)c2)c1`, the “flux ratio, lower = inhibition” value was “inactive”. For `Cc1cccc(C(=O)Nc2cccc(NC(=O)c3ccco3)c2)c1`, the “flux ratio, lower = inhibition” value was “inactive”. As to `Cc1cccc(NC(=O)c2cccc(NC(=O)c3ccccc3)c2)c1`, the “flux ratio, lower = inhibition” value is “inactive”. In the case of `COc1cccc(C(=O)Nc2cccc(NC(=O)c3ccccc3)c2)c1`, the “flux ratio, lower = inhibition” value is “inactive”. Still for that read-out and setting: for `CCOc1ccccc1NC(=O)c1cccc(NC(=O)C(C)(C)C)c1` the value was “inactive”; for `CCOc1ccccc1NC(=O)c1cccc(NC(=O)C2CCCCC2)c1`, “inactive”. Still for that read-out and setting: for `COc1ccccc1NC(=O)c1cccc(NC(=O)C2CCCCC2)c1` the value was “inactive”; for `Cc1cccc(C(=O)Nc2cccc(NC(=O)c3ccccc3)c2)c1`, “inactive”; for `Cc1cccc(C(=O)Nc2cccc(NC(=O)c3ccc(C(F)(F)F)cc3)c2)c1`, “inactive”. Same read-out and setting: for `CCOc1ccccc1NC(=O)c1cccc(NC(=O)c2cccc(C)c2)c1` the value was “inactive”; for `COc1ccccc1C(=O)Nc1cc(NC(=O)c2cccc(C)c2)ccc1F`, “inactive”; for `CCOc1ccccc1NC(=O)c1cccc(NC(=O)CC2CCCC2)c1`, “inactive”. On to `O=C(Nc1cccc(NC(=O)c2cccc(C(F)(F)F)c2)c1)c1ccccc1`, for which the “flux ratio, lower = inhibition” value was “inactive”.

Turning to `CCOc1ccccc1C(=O)Nc1cccc(NC(=O)c2cccc(C)c2)c1`, the “flux ratio, lower = inhibition” value was “inactive”. Regarding `CCOc1ccc(NC(=O)c2cccc(NC(=O)C3CCCC3)c2)cc1`, the “flux ratio, lower = inhibition” value is “inactive”. `Cc1cccc(C(=O)Nc2cccc(NC(=O)c3ccc(N(C)C)cc3)c2)c1`: the “flux ratio, lower = inhibition” value was “inactive”.

Consider `CCOc1ccccc1C(=O)Nc1cccc(NC(=O)c2ccccc2OC)c1`, for which the “flux ratio, lower = inhibition” value is “inactive”. On to `Cc1cccc(NC(=O)c2ccccc2NC(=O)c2ccccc2)c1`, for which the “flux ratio, lower = inhibition” value is “inactive”. `COc1ccccc1C(=O)Nc1cccc(NC(=O)c2cccc3ccccc23)c1`: the “flux ratio, lower = inhibition” value was “inactive”.

Take `COc1ccc(C(=O)Nc2cccc(NC(=O)c3ccccc3)c2)cc1`: the “flux ratio, lower = inhibition” value was “inactive”. On the same count and under the same terms, for `O=C(Nc1cccc(NC(=O)c2cccs2)c1)c1ccccc1` the value was “inactive”.

Consider `Cc1ccccc1C(=O)Nc1cccc(NC(=O)c2ccccc2)c1`, for which the “flux ratio, lower = inhibition” value was “inactive”.

As to `CCOc1ccccc1NC(=O)c1cccc(NC(=O)c2ccccc2OC(F)(F)F)c1`, the “flux ratio, lower = inhibition” value is “inactive”.

As to `Cc1cccc(S(=O)(=O)Nc2cccc(NC(=O)c3ccccc3)c2)c1`, the “flux ratio, lower = inhibition” value is “inactive”.

Turning to `Cc1cccc(C(=O)Nc2cccc(NC(=O)c3ccccc3Cl)c2)c1`, the “flux ratio, lower = inhibition” value was “inactive”.

For `O=C(Nc1cccc(NC(=O)c2ccncc2)c1)c1ccccc1`, the “flux ratio, lower = inhibition” value is “inactive”. On the same count and under the same terms, for `Cc1cccc(C(=O)Nc2cccc(NC(=O)c3cccc(C(F)(F)F)c3)c2)c1` the value was “inactive”; for `O=C(Nc1cccc(NC(=O)c2ccccn2)c1)c1ccccc1`, “inactive”. The same measure, in the same setting: for `CCOc1ccccc1NC(=O)c1cccc(NC(=O)C2CCOC2)c1` (stereo not given) the value was “inactive”; for `CCOc1ccccc1NC(=O)c1cccc(NC(=O)c2cccc(Cl)c2)c1`, “inactive”. Still for that read-out and setting: for `O=C(Nc1cccc(NC(=O)c2ccc(Cl)cc2)c1)c1ccccc1` the value was “inactive”.

In the case of `COc1c(F)cccc1C(=O)Nc1cccc(NC(=O)c2cccc(C)c2)c1`, the “flux ratio, lower = inhibition” value was “inactive”.

In the case of `Cc1cccc(C(=O)Nc2cccc(NC(=O)c3cccs3)c2)c1`, the “flux ratio, lower = inhibition” value was “inactive”. Consider `O=C(Nc1cccc(NC(=O)c2ccccc2Cl)c1)c1ccccc1`, for which the “flux ratio, lower = inhibition” value is “inactive”. Same read-out and setting: for `COc1cccc(C(=O)Nc2cccc(NC(=O)c3cccc(C)c3)c2)c1` the value was “inactive”; for `O=C(Nc1cccc(NC(=O)c2ccoc2)c1)c1ccccc1`, “inactive”. On the same count and under the same terms, for `CCOc1ccccc1NC(=O)c1cccc(NC(=O)c2ccc(OC)cc2)c1` the value was “inactive”; for `CCOc1ccccc1NC(=O)c1cccc(NC(=O)c2ccccc2OC)c1`, “inactive”; for `CCOc1ccccc1NC(=O)c1cccc(NC(=O)c2ccc(Cl)cc2)c1`, “inactive”.

Turning to `COc1ccccc1C(=O)Nc1cccc(NC(=O)c2ccccc2C)c1`, the “flux ratio, lower = inhibition” value is “inactive”. Consider `CCOc1ccccc1NC(=O)c1cccc(NC(=O)c2ccccc2)c1`, for which the “flux ratio, lower = inhibition” value was “inactive”.

Take `CCOc1ccccc1NC(=O)c1cccc(NC(=O)C2CCCC2)c1`: the “flux ratio, lower = inhibition” value is “inactive”. In the case of `O=C(Nc1cccc(NC(=O)c2ccccc2)c1)c1ccccc1`, the “flux ratio, lower = inhibition” value was “inactive”. Still for that read-out and setting: for `Cc1cccc(C(=O)Nc2ccccc2NC(=O)c2ccccc2)c1` the value was “inactive”; for `COc1ccccc1C(=O)Nc1cccc(NC(=O)c2ccccc2OC(F)(F)F)c1`, “inactive”; for `Cc1cccc(C(=O)Nc2cccc(NC(=O)C3CCCCC3)c2)c1`, “inactive”.

As to `Cc1cccc(C(=O)Nc2cccc(NC(=O)c3ccccc3C)c2)c1`, the “flux ratio, lower = inhibition” value was “inactive”.

For `COc1ccccc1C(=O)Nc1cccc(NC(=O)c2cccc(C)c2)c1`, the “flux ratio, lower = inhibition” value was “inactive”. Regarding `CC(C)Oc1ccccc1C(=O)Nc1cccc(NC(=O)c2ccccc2OC(F)(F)F)c1`, the “flux ratio, lower = inhibition” value is “inactive”. As to `CCOc1ccccc1NC(=O)c1cccc(NC(=O)c2cccc(C(F)(F)F)c2)c1`, the “flux ratio, lower = inhibition” value is “inactive”. Consider `CCOc1ccccc1NC(=O)c1cccc(NC(=O)c2ccccc2Cl)c1`, for which the “flux ratio, lower = inhibition” value is “inactive”. As for `CCOc1ccccc1NC(=O)c1cccc(NC(=O)c2ccc(C)cc2)c1`, the “flux ratio, lower = inhibition” value was “inactive”. With `CC(C)c1ccccc1C(=O)Nc1cccc(NC(=O)c2ccccc2OC(F)(F)F)c1`, the “flux ratio, lower = inhibition” value is “inactive”. `O=C(Nc1cccc(NC(=O)c2cccnc2)c1)c1ccccc1`: the “flux ratio, lower = inhibition” value was “inactive”. On the same count and under the same terms, for `CCOc1ccccc1NC(=O)c1cccc(NC(=O)c2ccc(C(F)(F)F)cc2)c1` the value was “inactive”. For the compound `CCOc1ccccc1C(=O)Nc1cccc(NC(=O)c2ccccc2C(F)(F)F)c1`, the “flux ratio, lower = inhibition” value was “inactive”. On to `COc1cnccc1C(=O)Nc1cccc(NC(=O)c2cccc(C)c2)c1`, for which the “flux ratio, lower = inhibition” value was “inactive”.

Regarding `O=C(Nc1cccc(NC(=O)C2CCCCC2)c1)c1ccccc1`, the “flux ratio, lower = inhibition” value was “inactive”. Regarding `O=C(Nc1cccc(NC(=O)c2ccccc2C(F)(F)F)c1)c1ccccc1`, the “flux ratio, lower = inhibition” value was “inactive”. On to `COc1ccccc1C(=O)Nc1cccc(NC(=O)c2ccccc2)c1`, for which the “flux ratio, lower = inhibition” value was “inactive”. Same read-out and setting: for `O=C(Nc1cccc(NC(=O)c2cccc(F)c2)c1)c1ccccc1` the value was “inactive”; for `CCOc1ccccc1NC(=O)c1cccc(NC(=O)c2ccccc2C)c1`, “inactive”; for `COc1ccccc1C(=O)Nc1cccc(NC(=O)c2ccccc2OC)c1`, “inactive”. Same read-out and setting: for `COc1ccccc1NC(=O)c1cccc(NC(=O)CC2CCCC2)c1` the value was “inactive”; for `Cc1cccc(C(=O)Nc2ccccc2C(=O)Nc2ccccc2)c1`, “inactive”; for `COc1ccccc1NC(=O)c1cccc(NC(=O)c2ccccc2OC)c1`, “inactive”.

For the compound `Cc1ccc(C(=O)Nc2cccc(NC(=O)c3ccccc3)c2)cc1`, the “flux ratio, lower = inhibition” value was “inactive”. Still for that read-out and setting: for `CCOc1ccccc1NC(=O)c1cccc(NC(=O)C2CC2)c1` the value was “inactive”; for `CCOc1ccccc1NC(=O)c1cccc(NC(=O)C2CCCO2)c1` (stereo not given), “inactive”; for `CC(C)(C)c1ccc(C(=O)Nc2cccc(NC(=O)c3ccccc3)c2)cc1`, “inactive”. As to `Cc1cccc(C(=O)Nc2cccc(NC(=O)c3cccc(C)c3)c2)c1`, the IC50 was 12.4 µM.

With `O=C(Nc1ccccc1Cl)c1cccc(NC(=O)C2CCCC2)c1`, the “flux ratio, lower = inhibition” value is “inactive”. Same read-out and setting: for `Cc1cccc(C(=O)Nc2cccc(NC(=O)c3ccccc3OCC(C)C)c2)c1` the value was “inactive”.

Source of the values: PubChem BioAssay AID652194 (Johns Hopkins Ion Channel Center, 2013).
